# Laboratory results taken from patent US20020165149A1, “Mutated class II major histocompatibility proteins” (priority 2000, published 2002).
# Where two headings read alike, the source gives them in different places. No end group written: not given here. *: point of attachment. Biotin = O=C1N[C@H]2[C@H](CS[C@H]2CCCCC(=O)*)N1
# Columns and labels:
# I-A^g7 = experiment: Direct binding of biotinylated peptide to L-cells transfected with I-A^g7 (flow cytometry); parameters: species or system murine; details: 3 hours at 37° C., pH 6; streptavidin-PE detection
# I-A^g7-negative L-cells = details: peptide 1.6 μM-50 μM, 3 hours at 37° C., pH 6
# Protocol: FIG. 13 is a binding curve showing I-A^g7-positive L-cell binding to titrated amounts of B-1040-63 peptide (1.6 μM-50 μM).
# Chain of I-A^g7 (as listed by the source): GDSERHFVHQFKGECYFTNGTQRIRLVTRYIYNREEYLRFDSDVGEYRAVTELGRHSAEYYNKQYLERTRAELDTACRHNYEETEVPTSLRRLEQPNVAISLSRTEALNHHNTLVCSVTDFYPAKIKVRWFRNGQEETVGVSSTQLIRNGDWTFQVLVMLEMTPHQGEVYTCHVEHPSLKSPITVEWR
# Chain of I-A^g7 (P04228 24-256): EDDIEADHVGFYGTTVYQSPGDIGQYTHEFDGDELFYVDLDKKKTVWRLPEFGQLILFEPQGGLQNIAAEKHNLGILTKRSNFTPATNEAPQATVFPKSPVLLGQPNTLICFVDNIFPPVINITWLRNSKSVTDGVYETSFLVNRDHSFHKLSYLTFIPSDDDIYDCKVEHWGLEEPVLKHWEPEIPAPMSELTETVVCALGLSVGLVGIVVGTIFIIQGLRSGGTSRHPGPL
substance,measurement,setting,value
Biotin-RTRPLWVRME [Mut B-1040-63],binding to L cells transfected with IA^g7,I-A^g7,bind specifically
same,binding to untransfected (I-A^g7-negative) L cells,I-A^g7-negative L-cells,does not bind
same,binding to untransfected (I-A^g7-negative) L cells,I-A^g7-negative L-cells; listed as B-104-63,does not occur
